According to PMC11973282, “RAS70 peptide targets multiforme glioblastoma by binding to the plasma membrane heat shock protein HSP70” (Frontiers in Oncology, 2025):

What was measured:
[1] = test system: high-grade glioma biopsy material; assay: Ex vivo topical application on patient brain tumor specimens, confocal/fluorescent microscopy; design: species or system human
From the text: To study RAS70 peptide accumulation in the brain tumors the latter were obtained from neuro-oncological patients. Intraoperative biopsy material obtained from adult (n=6) and pediatric (n=2) patients with radiological diagnosis of high-grade gliomas without previous radiation therapy and chemotherapy. The patients underwent microsurgical interventions between February 2024 and July 2024 ( Table 1 ). The study protocol was approved by the Ethics Committee of the Almazov Medical Research Centre (approval No. 2712-20, December 21, 2020).
To evaluate local accumulation of the fluorescently-labeled peptides the latter were sprayed over the freshly dissected brain tumor specimens as follows (1): control group – PBS (50 μL) (2); NGL-sCy7.5 peptide (50 μl, at concentration of 100 μg) (3); NGL-RGD-sCy7.5 peptide (50 μl, at concentration of 100 μg) (4); TKD-sCy7.5 peptide (50 μl, at concentration of 100 μg) (5); […] peptide (50 μl, at concentration of 100 μg). […]
Small pieces of brain tissue (50-100 mm³) were taken from patients or animals during surgery. […] Hoechst 33342 fluorescence was excited with a 405 nm laser and recorded in the range 410 to 550 nm; Hsp70-FITC and Mito Green fluorescence were excited with a 488 nm laser and recorded in the range 495 to 550 nm; and Cy5 fluorescence was excited with a 633 nm laser and recorded in the range 635 to 750 nm. […]
To study the target properties of the peptide RAS70 ex vivo, biopsy material was obtained from adult (n=6) and pediatric (n=2) neurooncological patients ( Table 1 ). […] Subsequently, tumor was co-incubated with peptide at a concentration of 1 mg/mL for 5–10 minutes, after which the tissue sample was washed with a PBS solution and analyzed by live-cell inverted confocal microscopy ( Figures 11A–C ).
To detect peptide localization, the biopsy material was additionally stained with a mitochondrial marker MitoGreen and anti-Hsp70 antibodies (SPA-810). […] Additionally, we assessed the depth of the RAS70-sCy3/sCy5 penetration into the tumor tissues […]. […]

[2] = test system: U251 cells (lower chamber; HUVEC and astrocytes barrier)
Procedure: Then, a peptide labeled with a fluorescent label was introduced into the upper chamber and co-incubation was carried out for 12, 24 and 36 hours. At the end of the incubation, the tumor cells were washed with cold phosphate-buffered saline (PBS) and fixed with a 4% solution of paraformaldehyde in PBS. Nuclei were stained with 4’,6-diamidino-2-phenylindole (DAPI). Fluorescent images were obtained using a Leica TCS SP8 confocal microscope (Leica, Germany). To avoid possible cross-interference of different fluorochromes, images for DAPI and FITC were obtained using a sequential sample scanning method. Fluorescently labeled cells were counted in the lower chamber. To estimate the mHsp70-mediated uptake of chaperone-targeted peptides tumor cells prior to incubation were pre-treated with anti-Hsp70 monoclonal antibodies SPA-810 (1:250, Stressgen) and SPA-815 (1:250 Stressgen). To exclude integrin (αvβ3, αvβ5)-mediated penetration of RAS70 tumor cells prior to incubation with peptides were pre-treated with anti- αvβ3 (1:200 clone LM609, ZMS1030, Sigma-Aldrich, USA), -αvβ5 (1:200 clone P1F6, MAB1961Z, Sigma-Aldrich, USA) monoclonal antibodies.
Then, a peptide labeled with a fluorescent dye (FITC) was introduced into the upper chamber and co-incubation was carried out for 12, 24 and 36 hours. At the end of the incubation, the tumor cells were washed with cold phosphate-buffered saline (PBS) and fixed with a 4% solution of paraformaldehyde in PBS. Nuclei were stained with 4’,6-diamidino-2-phenylindole (DAPI).
Data from 3 independent experiments are presented as M ± SE. […] Data from 3 independent experiments are presented as M ± SE. ** p < 0.01 for testing mean expression levels.

[3] = RAS70 solution stability study (HPLC-QTOF/MS); type: physicochemical; settings: 1 mg/mL stock in sterile 0.9% sodium chloride, diluted working solutions, Protein LoBind tubes, HPLC-QTOF/MS peak area normalized to internal standard dalargin vs freshly prepared solutions
From the text: HPLC grade reagents include acetonitrile (1.00029) and formic acid (5.33002), were purchased from Sigma Aldrich. The deionized HPLC grade water was obtained through a Milli-Q system (Millipore, Milford, MA, USA). Sodium acetate (Sigma Aldrich, St. Louis, USA) was used for MS calibration. Dalargin (Tyrosyl-D-alanyl-glycyl-phenylalanyl-leucyl-arginine; UNII V13505565P) was used as an internal standard. Protein LoBind® Tubes (022431081, Eppendorf, Hamburg, Germany). The stock solution of RAS70 were prepared by dissolving 1 mg of RAS70 reference standard in 1 mL of a sterile solution of 0.9% sodium chloride in water. After centrifugation the supernatant were transferred into Protein LoBind Tubes (Eppendorf, Hamburg, Germany). Working standard solutions for stability study were prepared using a dilution method. All of the solutions were stored away from light at RT and in a refrigerator at +4°C. The samples were analyzed on a HPLC-QTOF/MS system (Bruker Daltonics, Bremen, Germany) that consisted of an Elute UHPLC coupled to Q-TOF Maxis Impact equipped with an electrospray ionization source ( Supplementary Figure S1 ). […] Chromatograms and mass spectra were analyzed using DataAnalysis® 5.0 software (Bruker Daltonics GmbH, Bremen, Germany). […]

[4] = test system: C6, GL261, and T98G cells; assay: MTT test, overall statement for all cell lines studied; settings: fluorescently labeled peptides, 7.5, 75, 750 µg/mL, 24, 48 and 72 hours
Procedure: 3-(4,5-dimethylthiazol-2-yl)-2,5-diphenyltetrazolium bromide (MTT) assay was performed to evaluate the cytotoxic effect of TKD-sCy5, RAS70-sCy5, and NGL-RGD-sCy5 peptides. The C6, GL261, and T98G cells were seeded in 96-well plates (Thermo Fisher Scientific, Waltham, USA) at concentration of 5*10^3 cells in 100 µL per well, plates were incubated at 37°C in 5% CO2. After 24 hours, peptides were added to the culture medium for final concentration of 7.5, 75, and 750 μg/mL; plates were incubated for 24, 48 and 72 hours. […] At the end of the incubation period, 1 mg/mL MTT solution was added for 4 hours and dissolved with DMSO. The absorbance was measured at 570 nm using Varioskan LUX Multimode Microplate Reader (Thermo Fisher Scientific, Waltham, USA).
Subsequently, we analyzed the cytotoxic effect of the peptides (RAS70, TKD, NGL, NGL-RGD) using the MTT test at various peptides concentrations (7.5, 75, 750 µg/mL) and co-incubation times of 24, 48 and 72 hours.

| Compound | accumulation in patient brain tumor samples ([1]; 1 mg/mL, 5–10 minutes, live-cell inverted confocal microscopy, adult (n=6) and pediatric (n=2) patients) | depth of the peptide penetration into the tumor tissues ([1]; RAS70-sCy3/sCy5 topically applied on patient tumor samples, histological sections, fluorescent microscopy) | retention in necrotic tumor areas ([1]; patient tumor samples, confocal microscopy) | fluorescently labeled tumor cells in the lower chamber [2] | time for which RAS70 solution was stable ([3]; storage at RT away from light) | time for which RAS70 solution was stable ([3]; storage in refrigerator at +4°C away from light) | cytotoxic effect (MTT test) [4] |
| --- | --- | --- | --- | --- | --- | --- | --- |
| CC(C)C[C@H](NC(=O)[C@H](CC(C)C)NC(=O)[C@H](CC(N)=O)NC(=O)[C@H](CC(N)=O)NC(=O)[C@H](CC(=O)O)NC(=O)[C@H](CCCCN)NC(=O)[C@@H](N)[C@@H](C)O)C(=O)NCC(=O)N[C@@H](CCCNC(=N)N)C(=O)N[C@@H](Cc1ccccc1)C(=O)N[C@@H](CCC(=O)O)C(=O)N[C@@H](CC(C)C)C(=O)N[C@@H](CO)C(=O)NCC(=O)NCCC(=O)N[C@@H](CCCNC(=N)N)C(=O)NCC(=O)N[C@@H](CC(=O)O)C(=O)O [RAS70] | noted in all analyzed samples | 3.0 ± 0.87 mm | non-specific retention of the peptide | 603 ± 87 cells | 1 week | 1 week |  |
| CC(C)C[C@H](NC(=O)[C@H](CC(C)C)NC(=O)[C@H](CC(N)=O)NC(=O)[C@H](CC(N)=O)NC(=O)[C@H](CC(=O)O)NC(=O)[C@H](CCCCN)NC(=O)[C@@H](N)[C@@H](C)O)C(=O)NCC(=O)N[C@@H](CCCNC(=N)N)C(=O)N[C@@H](Cc1ccccc1)C(=O)N[C@@H](CCC(=O)O)C(=O)N[C@@H](CC(C)C)C(=O)N[C@@H](CO)C(=O)NCC(=O)O [TKD] |  |  |  |  |  |  | did not reveal the toxic effect |
